Assay results taken from patent US10656162B2, “Use of glu-tubulin as a biomarker of drug response to furazanobenzimidazoles” (Basilea Pharmaceutica AG, priority 2011, dated 2020).

How the values were obtained:
[1] = system: HeLa cervical cancer cells; assay: Immunofluorescent staining of microtubules, HeLa; format: cell-based, human; settings: 24 hours, 50 nM BAL27862
Description: (§1) A549 human non-small cell lung cancer (NSCLC, ATCC reference number CCL-185) cells, HeLa cervical cancer cells (ATCC reference number CCL-2) and SKBR3 breast carcinoma cells (ATCC reference number HTB-30) were seeded at densities of 50% on round microscope coverslips and cultured for 24 hours in RPMI-1640 containing 10% FCS (also referred to as FBS) at 37° C., 5% CO2. Compounds to be tested were dissolved in DMSO. The cell culture medium was replaced with medium containing the diluted compound(s) (paclitaxel, vinblastine, colchicine and nocodazole were purchased from Sigma-Aldrich) or vehicle. After treatment for the times indicated in the Brief Description of the Figures, coverslips were washed and cells were fixed in methanol/acetone (1:1) for 5 minutes at room temperature and subsequently incubated in blocking buffer (0.5% BSA and 0.1% TX-100 in PBS) for 30 minutes at room temperature. Specimens were then incubated with anti-alpha-tubulin (Sigma, 1:2000) for 1 hour at room temperature in blocking buffer. After several washing steps cells were incubated with AlexaFluor-488 goat-anti-mouse IgG (Molecular Probes, 1:3000) for 1 hour at room temperature followed by several washing steps with blocking buffer. […]

[2] = system: LXFE 397 Patient-derived lung tumour; assay: Colony outgrowth assay, LXFE 397; format: cell-based, human
Description: (§2) Single cell suspensions of patient-derived tumour xenografts (maintained in nude mice) were prepared. For colony outgrowth assays, cells were plated in soft agar in 24-well plates according to the assay introduced by Hamburger & Salmon (Primary bioassay of human tumour stem cells, Science, 1977.197:461-463). 2×10^4-6×10^4 cells in 0.2 mL medium containing 0.4% agar were plated out on a bottom layer of 0.75% agar. Test compounds were applied in 0.2 mL culture medium. Every 24-well plate contained untreated controls and samples in triplicates. Cultures were incubated at 37° C. and 7.5% CO2 for 5-28 days. 24 hours prior to analysis, vital colonies were stained with a solution of metabolisable tetrazolium salt (Alley M C et al, Life Sci. 1982, 31:3071-3078) and were counted with an automatic image analysis system (Omnicon 3600, Biosys GmbH).
(§3) Relative drug effects were expressed by the ratio of the mean number of colonies in the treated wells and the control wells. IC70-values were determined by plotting compound concentrations versus relative colony counts.

[3] = system: P-gp pump over-expressing models; assay: Models over-expressing the P-gp pump; format: cell-based; settings: models tested in vitro; also human mammary tumour xenografts
[4] = system: LXFE 211 Patient-derived lung tumour; assay: Colony outgrowth assay, LXFE 211; format: cell-based, human; parameters: key to Response to compound (BAL27862, paclitaxel, vinblastine): Sensitive: BAL27862-sensitive tumour cells have IC70 values in the low nanomolar range; Resistant: BAL27862-resistant tumour cells are defined by IC70 values >600 nanomolar
Description: as §2, §3

[5] = system: MEXF 1341 patient-derived melanoma; assay: Colony outgrowth assay, MEXF 1341; format: cell-based, human; parameters: key to Response to compound (BAL27862, paclitaxel, vinblastine): Sensitive: BAL27862-sensitive tumour cells have IC70 values in the low nanomolar range; Resistant: BAL27862-resistant tumour cells are defined by IC70 values >600 nanomolar
Description: as §2, §3

[6] = system: A549 BAL27862-resistant cell line variant; assay: Crystal Violet assay, BAL27862-resistant A549 versus parental line; format: cell-based, human
Excerpt: (§4) BAL27862-resistant sublines of human non-small cell lung cancer (H460 ATCC reference HTB-177; A549 ATCC reference CCL-185), ovarian cancer (SKOV3 ATCC reference HTB-77) lines were generated by long-term selection in complete cell culture medium (RPMI-1640 containing 10% FCS; Sigma-Aldrich) by stepwise increasing concentrations of BAL27862. […] The resistant sublines were expanded at the highest tolerated BAL27862 concentration and subsequently frozen and stored in liquid nitrogen.
(§5) After medium was removed, cells were fixed and stained by adding 50 μl Crystal Violet Staining (0.2% Crystal Violet in 50% Methanol) per well. Plates were incubated for 1 hour at room temperature. Subsequently the stain was decanted and plates were washed 4 times with double-distilled water. Plates were air-dried for several hours. Stain was dissolved by adding 100 μl buffer (0.1 M Tris pH 7.5, 0.2% SDS, 20% Ethanol) per well and shaking the plates. Absorbance at 590 nm was measured using a SpectraMax M2e plate reader (Molecular Devices). Anti-proliferative IC50 values were calculated from concentration response curves using GraphPad Prism software. Resistance factors were calculated as a ratio of BAL27862 IC50 in the resistant line variant versus the IC50 in the parental line.

[7] = system: CXF 1103 patient-derived colorectal tumour; assay: Colony outgrowth assay, CXF 1103; format: cell-based, human
Description: as §2, §3

SKOV3 resistant 1 = assay: Crystal Violet assay, SKOV3 resistant 1 versus parental line; format: cell-based, human
Excerpt: as §4, §5

[8] = system: MEXF 276 patient-derived melanoma; assay: Colony outgrowth assay, MEXF 276; format: cell-based, human
Description: as §2, §3

[9] = system: H460 BAL27862-resistant cell line variant; assay: Crystal Violet assay, BAL27862-resistant H460 versus parental line; format: cell-based, human
Excerpt: as §4, §5

[10] = system: SKBR3 breast cancer cells; assay: Immunofluorescent staining of microtubules, SKBR3; format: cell-based, human; settings: SKBR3, 24 hours, 50 nM BAL27862
Description: as §1

[11] = system: experimental, solid tumour xenograft models; assay: Solid tumour xenograft models; settings: in vivo
[12] = system: CXF 243 patient-derived colorectal tumour; assay: Colony outgrowth assay, CXF 243; format: cell-based, human; settings: CXF 243, 70% growth inhibition versus controls
Description: as §2, §3

SKOV3 resistant 2 = assay: Crystal Violet assay, SKOV3 resistant 2 versus parental line; format: cell-based, human
Excerpt: as §4, §5

A549 NSCLC cells = assay: Immunofluorescent staining of microtubules, A549; format: cell-based, human; settings: for Microtubule phenotype of mitotic or G2/M arrested cells: A549, 24 hours, 50 nM BAL27862, 80 nM Compound B, 20 nM Compound C, anti-alpha-tubulin staining
Description: A549 human non-small cell lung cancer (NSCLC, ATCC reference number CCL-185) cells, HeLa cervical cancer cells (ATCC reference number CCL-2) and SKBR3 breast carcinoma cells (ATCC reference number HTB-30) were seeded at densities of 50% on round microscope coverslips and cultured for 24 hours in RPMI-1640 containing 10% FCS (also referred to as FBS) at 37° C., 5% CO2. Compounds to be tested were dissolved in DMSO. The cell culture medium was replaced with medium containing the diluted compound(s) (paclitaxel, vinblastine, colchicine and nocodazole were purchased from Sigma-Aldrich) or vehicle. After treatment for the times indicated in the Brief Description of the Figures, coverslips were washed and cells were fixed in methanol/acetone (1:1) for 5 minutes at room temperature and subsequently incubated in blocking buffer (0.5% BSA and 0.1% TX-100 in PBS) for 30 minutes at room temperature. Specimens were then incubated with anti-alpha-tubulin (Sigma, 1:2000) for 1 hour at room temperature in blocking buffer. After several washing steps cells were incubated with AlexaFluor-488 goat-anti-mouse IgG (Molecular Probes, 1:3000) for 1 hour at room temperature followed by several washing steps with blocking buffer. Specimens were then mounted with ProLong Gold antifade (Molecular Probes, sealed with nail polish and examined with a Leica immunofluorescence microscope. Images were captured with a cooled CCD-camera and processed by ImageJ software.

How did the “Microtubule phenotype of mitotic or G2/M arrested cells” value [1] turn out when `N#CCCNc1nonc1-c1nc2ccccc2n1CC(=O)c1ccc(N)cc1` [BAL27862, 3-(4-{1-[2-(4-Amino-phenyl)-2-oxo-ethyl]-1H-benzoimidazol-2-yl}-furazan-3-ylamino)-propionitrile] was run?
The value was “highly reproducible and distinct microtubule phenotype”.

What about the “IC70 BAL27862” value ([2]; LXFE 397, 70% growth inhibition versus controls) of the same compound?
The value was greater than 3.5 µM.

And the “Response to compound (BAL27862, paclitaxel, vinblastine)” value (“Response to compound” for short) ([2]; LXFE 397, lung cancer, ex vivo colony outgrowth)?
Its value is “Resistant (BAL27862-resistant tumour cells are defined by IC70 values >600 nanomolar)”.

What about the “Activity with over-expression of the P-gp pump” value [3] of the same compound?
The value was “not affected”.

What about the “IC70 BAL27862” value ([4]; LXFE 211, 70% growth inhibition versus controls) of the same compound?
The value was 0.021 µM.

And the “Response to compound” value ([4]; LXFE 211, lung cancer, ex vivo colony outgrowth)?
The value was “Sensitive”.

And the “IC70 BAL27862” value ([5]; MEXF 1341, 70% growth inhibition versus controls)?
Its value is 0.025 µM.

And the “Response to compound” value ([5]; MEXF 1341, melanoma, ex vivo colony outgrowth)?
Its value is “Sensitive”.

And the “Resistance factors (ratio of IC50 BAL27862-resistant cell line variant and IC50 parental cell line)” value ([6]; A549, 72 hours, Crystal Violet)?
Its value is 3.0.

What about the “BAL27862 resistance factors versus parental lines” value ([6]; A549, based on IC50 determinations) of the same compound?
Its value is 3.0 fold.

And the “IC70 BAL27862” value ([7]; CXF 1103, 70% growth inhibition versus controls)?
Its value is 0.022 µM.

What about the “Response to compound” value ([7]; CXF 1103, colorectal cancer, ex vivo colony outgrowth) of the same compound?
The value was “Sensitive”.

What about the “Resistance factors (ratio of IC50 BAL27862-resistant cell line variant and IC50 parental cell line)” value (SKOV3 resistant 1; SKOV3 resistant 1, 72 hours, Crystal Violet) of the same compound?
Its value is 7.6.

What about the “BAL27862 resistance factors versus parental lines” value (SKOV3 resistant 1; SKOV3 resistant 1, based on IC50 determinations) of the same compound?
Its value is 7.6 fold.

What about the “IC70 BAL27862” value ([8]; MEXF 276, 70% growth inhibition versus controls) of the same compound?
The value was greater than 3.5 µM.

What about the “Response to compound” value ([8]; MEXF 276, melanoma, ex vivo colony outgrowth) of the same compound?
Its value is “Resistant (BAL27862-resistant tumour cells are defined by IC70 values >600 nanomolar)”.

And the “Resistance factors (ratio of IC50 BAL27862-resistant cell line variant and IC50 parental cell line)” value ([9]; H460, 72 hours, Crystal Violet)?
The value was 5.3.

And the “BAL27862 resistance factors versus parental lines” value ([9]; H460, based on IC50 determinations)?
The value was 5.3 fold.

And the “Microtubule phenotype of mitotic or G2/M arrested cells” value [10]?
Its value is “highly reproducible and distinct microtubule phenotype”.

And the “Activity in tumour xenograft models” value [11]?
The value was “activity across a broad panel of experimental, solid tumour xenograft models”.

And the “IC70 BAL27862” value [12]?
Its value is 0.696 µM.

And the “Resistance factors (ratio of IC50 BAL27862-resistant cell line variant and IC50 parental cell line)” value (SKOV3 resistant 2; SKOV3 resistant 2, 72 hours, Crystal Violet)?
Its value is 11.6.

What about the “BAL27862 resistance factors versus parental lines” value (SKOV3 resistant 2; SKOV3 resistant 2, based on IC50 determinations) of the same compound?
The value was 11.6 fold.

What about the “Microtubule phenotype on combination treatment” value (A549 NSCLC cells; A549, 24 hours vinblastine, colchicine, paclitaxel or nocodazole with the final 4 hours including BAL27862) of the same compound?
The value was “disruption of the microtubule structures”.

What about the “Microtubule phenotype of mitotic or G2/M arrested cells” value (A549 NSCLC cells) of the same compound?
The value was “multiple dot-like structures are visible”.

What about the “Microtubule phenotype of mitotic or G2/M arrested cells” value (A549 NSCLC cells; listed as compound A) of the same compound?
The value was “highly reproducible and distinct microtubule phenotype”.
